Like-named read-outs stand apart in the source and are kept apart here.

One series relates to FGFR. Description: FGF-induced DNA synthesis (BrdU incorporation) in 3T3/EGFRc7 cells. The format is cell-based. The protocol:
(§1) The following example illustrates the ability of the compounds of the invention to inhibit FGFR-stimulated and PDGFR-stimulated DNA synthesis in cells. DNA synthesis is required for many of the activities of FGFP and PDGFR including, but not limited to, cell proliferation. Uridine is added in one set of samples to overcome any contribution made by inhibition of DHOD and just evaluate the inhibition of PDGFR or FGFR signaling. (See Greene, et al., Biochem. Pharmacol., 50(6):861 (1995), Nair, et al., Immunology Letters, 47:171 (1995)).
(§2) (1) EGF: mouse EGF, 201; Toyobo,Co., Ltd. Japan; PDGF, Boehringer Mannheim, Germany; FGF, Gibco.
(§3) (2) BrdU Labeling Reagent: 10 mM, in PBS (pH7.4) Cat. No. 1 647 229, Boehringer Mannheim, Germany.
(§4) (3) FixDenat: fixation solution (ready to use), Cat. No. 1 647 229, Boehringer Mannheim, Germany.
(§5) (4) Anti-BrdU-POD: mouse monoclonal antibody conjugated with peroxidase, Cat. No. 1 647 229, Boehringer Mannheim, Germany.
(§6) (5) TMB Substrate Solution: tetramethylbenzidine (TMB), ready to use, Cat. No. 1 647 229, Boehringer Mannheim, Germany.
(§7) (6) PBS Washing Solution: 1×phosphate buffered saline, pH 7.4
(§8) (7) Albumin, Bovine (BSA): fraction V powder; A-8551, Sigma Chemical Co., USA.
(§9) (8) NIH3T3 clone C7 (3T3/EGFRc7)(Honegger et al., Cell 51:199-209, 1987)) engineered to over-express human EGF receptor.
(§10) These cells natively express FGFR and PDGFR.
(§11) (1) 3T3/EGFRc7 cells were seeded at 8000 cells/well in DMEM, 10% CS, 2 mM Gln in a 96 well plate. Cells are incubated overnight at 37 degrees C. in 5% CO2.
(§12) (2) After 24 hours, the cells were washed with PBS, and then serum starved in serum free medium (0%CS DMEM with 0.1% BSA) for 24 hours.
(3) On day 3, ligand (2n EGF or 1.5 nM FGF or 3.8 nM PDGF) prepared in DMEM with 0.1% BSA and 30 μM (final concentration) uridine) and test compound was added to the cells simultaneously.
The negative control wells received serum free DMEM with 0.1% BSA only; the positive control cells received ligand but no test compound. Test compound was prepared in serum free DMEM with ligand in a 96 well plate, and serially diluted for 7 test concentrations.
(4) After 20 hours of ligand activation, diluted BrdU labeling reagent (1:100 in DMEM, 0.1% BSA) was added and the cells were incubated with BrdU (final concentration=10 μM) for 1.5 hours.
(5) After incubation with labeling reagent, the medium was removed by decanting and tapping the inverted plate on a paper towel. FixDenat solution was added (50 μl/well) and the plates incubated at room temperature for 45 minutes on a plate shaker.
(6) The FixDenat solution was thoroughly removed by decanting and tapping the inverted plate on a paper towel. Milk is added (5% dehydrated milk in PBS, 200 μl/well) as a blocking solution and the plate was incubated for 30 minutes at room temperature on a plate shaker.
(7) The blocking solution was removed by decanting and the wells were washed once with PBS. Anti-BrdU-POD solution (1:100 dilution in PBS, 1% BSA) was added (100 μl/well) and the plate was incubated for 90 minutes at room temperature on a plate shaker.
(8) The antibody conjugate was thoroughly removed by decanting and rinsing the wells 5 times with PBS, and the plate dried by inverting and tapping on a paper towel.
(9) TMB substrate solution was added (100 μl/well) and incubated for 20 minutes at room temperature on a plate shaker until color development was sufficient for photometric detection.
(§13) (10) The absorbance of the samples was measured at 410 nm (in “dual wavelength” mode with a filter reading at 490 nm, as a reference wavelength) on a Dynatech ELISA plate reader.
(Incorporation of labelled thymidine or its analogues reports DNA synthesis.)

In the next series the test system is PDGFR. Description: PDGF-induced DNA synthesis (BrdU incorporation) in 3T3/EGFRc7 cells. The conditions noted are these: 3.8 nM PDGF, read-out: PDGF-induced (inhibition of DNA synthesis). It is filed as cell-based. The protocol:
as §1, §2, §3, §4, §5, §6, §7, §8, §9, §10, §11, §12
(§14) (3) On day 3, ligand (2n EGF or 1.5 nM FGF or 3.8 nM PDGF) prepared in DMEM with 0.1% BSA and 30 μM (final concentration) uridine) and test compound was added to the cells simultaneously. […]
as §13

The next series addresses T1, human EGF receptor (Homo sapiens, UniProt P00533).
T1 construct: expressed in transfected cells; host or cells: NIH3T3 clone C7 (3T3/EGFRc7)
The experiment in a line: EGF-induced DNA synthesis (BrdU incorporation) in 3T3/EGFRc7 cells. The format is cell-based. The conditions noted are these: read-out: EGF-induced (inhibition of DNA synthesis). The protocol:
as §1, §2, §3, §4, §5, §6, §7, §8, §9, §10, §11, §12, §14, §13

The next series deals with C6 cells (glioblastoma). Description: Subcutaneous xenograft experiment, inhibition of tumor growth in vivo. The conditions noted are these: for inhibition (% of control): 30 mg/kg/day IP in DMSO, tumor volume. As for the experimental part:
Female athymic mice (BALB/c, nu/nu) were obtained from Simonsen Laboratories (Gilroy, Calif.). All animals were maintained under clean-room conditions in Micro-isolator cages with Alpha-dri bedding. They received sterile rodent chow and water ad libitum.
Cell lines were grown in Ham's F10 plus 5% fetal bovine serum (FBS) and 2 mM glutamine (GLN). All cell culture media, glutamine, and fetal bovine serum were purchased from Gibco Life Technologies (Grand Island, N.Y.) unless otherwise specified. All cells were grown in a humid atmosphere of 90-95% air and 5-10% CO2 at 37° C. All cell lines were routinely subcultured twice a week and were negative for mycoplasma as determined by the Mycotect method (Gibco).
Cells were harvested at or near confluency with 0.05% Trypsin-EDTA and pelleted at 450×g for 10 min. Pellets were resuspended in sterile PBS or media (without FBS) and the cells were implanted into the hindflank of the mice (8-10 mice per group 3×10^6 cells/animal). Tumor growth was measured over 3 weeks using venier calipers. Tumor volumes were calculated as a product of length×width×height unless otherwise indicated. P values were calculated using the Students' t-test. Cmpd. 1 in 50 μL excipient (DMSO) was delivered by IP bolus injection daily.

[1] abbreviates: FGF induced DNA synthesis, with added uridine (30 μM), read-out: IC50 + uridine.
The mark [2] stands for this setting: FGF induced DNA synthesis, without added uridine, read-out: IC50 − uridine.
[3] abbreviates: 1.5 nM FGF, Table 2 experiment, read-out: FGF-induced (inhibition of DNA synthesis).

T1 sequence (P00533 25-1210): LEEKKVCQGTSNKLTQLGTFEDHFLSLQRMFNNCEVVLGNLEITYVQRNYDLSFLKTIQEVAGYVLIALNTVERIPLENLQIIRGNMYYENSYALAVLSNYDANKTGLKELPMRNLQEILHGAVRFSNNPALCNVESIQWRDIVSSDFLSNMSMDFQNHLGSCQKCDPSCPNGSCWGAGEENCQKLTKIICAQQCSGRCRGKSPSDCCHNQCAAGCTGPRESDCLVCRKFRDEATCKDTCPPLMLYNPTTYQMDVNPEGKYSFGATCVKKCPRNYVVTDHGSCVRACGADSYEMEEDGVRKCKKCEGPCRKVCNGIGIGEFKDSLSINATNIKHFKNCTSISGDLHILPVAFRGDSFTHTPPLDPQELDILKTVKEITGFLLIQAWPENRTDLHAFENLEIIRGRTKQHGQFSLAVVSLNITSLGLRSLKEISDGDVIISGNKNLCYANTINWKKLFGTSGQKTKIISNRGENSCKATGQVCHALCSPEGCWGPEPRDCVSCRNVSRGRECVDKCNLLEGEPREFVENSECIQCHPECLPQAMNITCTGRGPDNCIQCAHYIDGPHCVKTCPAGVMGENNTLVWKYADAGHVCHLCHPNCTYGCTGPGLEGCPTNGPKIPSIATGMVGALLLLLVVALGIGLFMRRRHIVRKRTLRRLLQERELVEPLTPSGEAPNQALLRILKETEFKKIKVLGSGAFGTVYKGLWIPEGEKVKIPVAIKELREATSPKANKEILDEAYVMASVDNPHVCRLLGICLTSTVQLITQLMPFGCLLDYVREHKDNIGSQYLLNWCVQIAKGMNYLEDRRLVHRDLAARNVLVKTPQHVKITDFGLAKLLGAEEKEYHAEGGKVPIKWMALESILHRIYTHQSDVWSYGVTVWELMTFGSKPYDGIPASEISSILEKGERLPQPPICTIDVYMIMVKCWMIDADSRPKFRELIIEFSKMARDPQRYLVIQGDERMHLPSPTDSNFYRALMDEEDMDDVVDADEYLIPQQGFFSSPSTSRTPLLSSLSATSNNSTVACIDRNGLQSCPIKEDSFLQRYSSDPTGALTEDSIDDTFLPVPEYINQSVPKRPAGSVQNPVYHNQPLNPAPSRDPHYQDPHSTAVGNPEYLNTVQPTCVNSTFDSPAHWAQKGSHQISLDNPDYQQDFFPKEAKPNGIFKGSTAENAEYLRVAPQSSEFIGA

Consider `Cc1c(-c2ccc(-c3ccccc3F)cc2)nc2ccc(F)cc2c1C(=O)O` [brequinar], for which the IC50 in the series on FGFR (setting [1]) was over 100 µM; in the series on FGFR (setting [2]), 1.6 µM.

For `Cc1n[nH]cc1C(=O)Nc1ccc(C(F)(F)F)cc1` [cmpd. 2, 3-Methyl-4-[4-(trifluoromethyl)phenylaminocarbonyl]pyrazole], the IC50 in the series with PDGFR is 95 µM; with FGFR (setting [3]), over 100 µM; at human EGF receptor, over 100 µM.

Take `C/C(O)=C(\C#N)C(=O)Nc1ccc(C(F)(F)F)cc1` [A771726]: the IC50 in the series on FGFR (setting [1]) was over 100 µM; with FGFR (setting [2]) it was 20 µM.

`Cc1oncc1C(=O)Nc1ccc(C(F)(F)F)cc1` [leflunomide, 4-(-(4′-trifluoromethylphenyl)carboxamido)-5-methyl-isoxazole]: the IC50 in the series on FGFR (setting [1]) turned out to be 80 µM; in the series with FGFR (setting [2]) it was 20 µM.

For the compound `Cc1noc(C)c1C(=O)Nc1ccc(C(F)(F)F)cc1` [cmpd. 21, 3,5-Dimethyl-4-[4-(trifluoromethyl)phenylaminocarbonyl]isoxazole], the IC50 in the series on PDGFR, in the series with FGFR (setting [3]) and at human EGF receptor was over 100 µM each time.

As for `Cc1nocc1C(=O)Nc1ccc(C(F)(F)F)cc1` [cmpd. 1, 3-Methyl-4-[4-(trifluoromethyl)phenyl-aminocarbonyl]isoxazole], the IC50 in the series with PDGFR is 90 µM; in the series with FGFR (setting [3]), 65 µM; in the series on FGFR (setting [1]) it was 70 µM; in the series on FGFR (setting [2]), 85 µM; on human EGF receptor, over 100 µM. Moreover, the “toxic effect at the dose tested” value with C6 cells (glioblastoma) (30 mg/kg/day IP, xenograft mice) is given as “no toxic effect”. Further, the mortality in the series on C6 cells (glioblastoma) (Day 8, 30 mg/kg/day IP) turned out to be 0; in the series on C6 cells (glioblastoma) (Day 10, 30 mg/kg/day IP), 0; in the series on C6 cells (glioblastoma) (Day 13, 30 mg/kg/day IP) it was 0; in the series with C6 cells (glioblastoma) (Day 15, 30 mg/kg/day IP), 0; with C6 cells (glioblastoma) (Day 17, 30 mg/kg/day IP) it was 0; in the series with C6 cells (glioblastoma) (Day 20, 30 mg/kg/day IP), 0. Moreover, the “inhibition (% of control)” value with C6 cells (glioblastoma) (Day 8) is 34 % of control; with C6 cells (glioblastoma) (Day 10) it was 42 % of control; in the series with C6 cells (glioblastoma) (Day 13), 48 % of control; in the series on C6 cells (glioblastoma) (Day 15) it was 47 % of control; with C6 cells (glioblastoma) (Day 17), 50 % of control; with C6 cells (glioblastoma) (Day 20), 52 % of control.

(Values after patent publication US6649635B2, “Heteroarylcarboxamide compounds active against protein tyrosine kinase related disorders” (Sugen, Inc., priority 1997, dated 2003).)
